Where two headings read alike, the source gives them in different places.
Assays:
[1] = target: full-length human HPK1 (MAP4K1) (Homo sapiens (Human), UniProt Q92918); assay: HPK1 Kinase Assay (Biochemical Assay), ADP-Glo; conditions: GST-HPK1 3.2 nM, 10 μM ATP, MBP substrate, read-out: HPK1 enzymatic IC50
Method in brief: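 GST-tagged full-length human HPK1 was expressed in Sf21 cells and used at 3.2 nM in 50 mM HEPES pH 7.5, 10 mM MgCl2, 2 mM DTT, 12.5 mM O-glycerophosphate, 0.01% BSA and 0.02% Brij-35. It was preincubated 15 min with 10-point compound dilutions, and the reaction was started with a start mix of 10 μM ATP and 3.235 μM MBP. After 120 min, ADP was measured by ADP-Glo luminescence and IC50 derived.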

[2] = target: HPK1 (SLP76 phosphorylation at Ser376 in Jurkat and EL-4 cells) (Homo sapiens, UniProt Q92918); type: cell-based
Method in brief: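 Jurkat (human) and EL-4 (mouse) cells, endogenous HPK1/SLP76, preincubated 60 min with compounds (10-point dilution), then stimulated with αCD3/αCD28 beads at 37 °C: 15 min for Jurkat, 30 min for EL-4. Ser376 pSLP76 in lysates read by AlphaLISA (Jurkat) or HTRF (EL-4); % inhibition and IC50 fitted.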

[3] = αCD3/αCD28 Dynabeads stimulated cells, pSLP76 (Ser376) detection; read-out: HPK1 pSLP76 IC50

Chain of full-length human HPK1 (MAP4K1) (Q92918 whole entry): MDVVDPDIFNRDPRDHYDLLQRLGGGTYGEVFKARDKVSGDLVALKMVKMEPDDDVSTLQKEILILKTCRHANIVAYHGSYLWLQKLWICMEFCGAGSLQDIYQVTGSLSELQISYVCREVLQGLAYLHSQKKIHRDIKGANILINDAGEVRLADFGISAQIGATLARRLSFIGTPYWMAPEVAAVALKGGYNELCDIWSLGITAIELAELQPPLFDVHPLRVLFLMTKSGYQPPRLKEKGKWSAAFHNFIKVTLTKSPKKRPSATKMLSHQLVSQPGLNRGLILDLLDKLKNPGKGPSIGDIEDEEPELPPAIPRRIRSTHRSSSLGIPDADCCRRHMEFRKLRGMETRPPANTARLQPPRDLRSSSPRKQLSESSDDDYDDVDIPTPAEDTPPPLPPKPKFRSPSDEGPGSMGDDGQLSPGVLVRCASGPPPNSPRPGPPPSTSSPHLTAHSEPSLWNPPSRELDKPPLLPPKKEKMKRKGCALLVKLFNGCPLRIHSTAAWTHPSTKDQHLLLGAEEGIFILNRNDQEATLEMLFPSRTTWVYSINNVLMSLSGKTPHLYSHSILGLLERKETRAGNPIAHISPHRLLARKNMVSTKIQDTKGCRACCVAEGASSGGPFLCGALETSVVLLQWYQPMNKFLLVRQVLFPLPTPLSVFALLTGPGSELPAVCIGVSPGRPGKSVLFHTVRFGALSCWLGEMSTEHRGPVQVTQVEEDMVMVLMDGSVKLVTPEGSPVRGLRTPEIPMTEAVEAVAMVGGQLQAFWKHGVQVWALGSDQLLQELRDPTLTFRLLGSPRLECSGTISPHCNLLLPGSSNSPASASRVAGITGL
Chain of HPK1 (SLP76 phosphorylation at Ser376 in Jurkat and EL-4 cells) (Q92918 whole entry, looked up): as the sequence (Q92918 whole entry) above

Q: How did the IC50 [1] turn out when `Cc1c(N2CCc3cnc(Nc4ccc(C(=O)N5CC[C@@H](N(C)C)C5)cc4)nc3C2)cnc2c1NCCO2` [Example 42, (3R)—N,N-dimethyl-1-{4-[(7-{8-methyl-1H,2H,3H-pyrido[2,3-b][1,4]oxazin-7-yl} 5H,6H,7H,8H-pyrido[3,4-d]pyrimidin-2-yl)amino]benzoyl}pyrrolidin-3-amine] was run?
A: < 100 nM

Q: What about the IC50 [2, 3] of the same molecule?
A: < 500 nM

Q: What does the source list for `Cc1c(N2CCc3cnc(Nc4ccc(N5CCC(OC(F)(F)F)CC5)cc4)nc3C2)cnc2c1NCCO2` [Example 103, 7-(8-methyl-2,3-dihydro-1H-pyrido[2,3-b][1,4]oxazin-7-yl)-N-(4-(4-(trifluoromethoxy)piperidin-1-yl)phenyl)-5,6,7,8-tetrahydropyrido[3,4-d]pyrimidin-2-amine]?
A: IC50 [1]: < 100 nM; IC50 ([2]; read-out: HPK1 pSLP76 IC50; αCD3/αCD28 Dynabeads stimulated cells, pSLP76 (Ser376) detection): > 1000 nM

Q: For `Cc1c(N2CCc3cnc(Nc4ccc(CS(C)(=O)=O)cc4)nc3C2)cnc2c1NCCO2` [Example 69, N-[4-(methanesulfonylmethyl)phenyl]-7-{8-methyl-1H,2H,3H-pyrido[2,3-b][1,4]oxazin-7-yl}-5H,6H,7H,8H-pyrido[3,4-d]pyrimidin-2-amine], which IC50 [1] is on record?
A: < 100 nM

Q: And the IC50 [2, 3]?
A: < 500 nM

Q: With `Cc1c(N2CCc3cnc(Nc4cnc5c(c4)CC(O)CC5)nc3C2)cnc2c1NCCO2` (stereo not shown) [Example 110, 3-((7-(8-methyl-2,3-dihydro-1H-pyrido[2,3-b][1,4]oxazin-7-yl)-5,6,7,8-tetrahydropyrido[3,4-d]pyrimidin-2-yl)amino)-5,6,7,8-tetrahydroquinolin-6-ol] as the molecule, how does the IC50 [1] read?
A: < 100 nM

Q: What about the IC50 [2, 3] of the same molecule?
A: 500 to 1000 nM

Q: For `Cc1c(N2CCc3cnc(Nc4ccc(Cn5ccnc5)cc4)nc3C2)cnc2c1NCCO2` [Example 127, N-{4-[(1H-imidazol-1-yl)methyl]phenyl}-7-{8-methyl-1H,2H,3H-pyrido[2,3-b][1,4]oxazin-7-yl}-5H,6H,7H,8H-pyrido[3,4-d]pyrimidin-2-amine], which IC50 [1] is on record?
A: < 100 nM

Q: What about the IC50 [2, 3] of the same molecule?
A: < 500 nM

Q: What does the source list for `Cc1c(N2CCc3cnc(Nc4ccc(CN5CCOCC5)cc4)nc3C2)cnc2c1NCCO2` [Example 99, 7-(8-methyl-2,3-dihydro-1H-pyrido[2,3-b][1,4]oxazin-7-yl)-N-(4-(morpholinomethyl)phenyl)-5,6,7,8-tetrahydropyrido[3,4-d]pyrimidin-2-amine]?
A: IC50 [1]: < 100 nM; IC50 [2, 3]: 500 to 1000 nM

Q: Which results are given for `COCC1CN(C(=O)Cc2ccc(Nc3ncc4c(n3)CN(c3cnc5c(c3C)NCCO5)CC4)cc2)C1` [Example 175, 1-[3-(methoxymethyl)azetidin-1-yl]-2-{4-[(7-{8-methyl-1H,2H,3H-pyrido[2,3-b][1,4]oxazin-7-yl}-5H,6H,7H,8H-pyrido[3,4-d]pyrimidin-2-yl)amino]phenyl}ethan-1-one]?
A: IC50 [1]: < 100 nM; IC50 [2, 3]: < 500 nM

Q: Which IC50 [1] does the source give for `Cc1c(N2CCc3cnc(Nc4cccc(C(C)(C)O)c4)nc3C2)cnc2c1NCCO2` [Example 82, 2-(3-((7-(8-methyl-2,3-dihydro-1H-pyrido[2,3-b][1,4]oxazin-7-yl)-5,6,7,8-tetrahydropyrido[3,4-d]pyrimidin-2-yl)amino)phenyl)propan-2-ol] here?
A: < 100 nM

Q: What about the IC50 [2, 3] of the same molecule?
A: < 500 nM

Q: Which IC50 [1] does the source give for `Cc1c(N2CCc3cnc(Nc4ccc([C@@H]5CCCS5(=O)=O)cc4)cc3C2)cnc2c1NCCO2` (single isomer, unassigned) [Example 170] here?
A: < 100 nM

Q: What about the IC50 [2, 3] of the same molecule?
A: < 500 nM

Q: Which IC50 [1] does the source give for `Cc1cc(Nc2ncc3c(n2)CN(c2cnc4c(c2C)NCCO4)CC3)ccc1NCCN1CCOCC1` [Example 23, 2-methyl-N4-(7-{8-methyl-1H,2H,3H-pyrido[2,3-b][1,4]oxazin-7-yl}-5H,6H,7H,8H-pyrido[3,4-d]pyrimidin-2-yl)-N1-[2-(morpholin-4-yl)ethyl]benzene-1,4-diamine] here?
A: < 100 nM

Q: What about the IC50 [2, 3] of the same molecule?
A: 500 to 1000 nM

Q: For `Cc1c(N2CCc3cnc(Nc4ccc(C(C)(C)C#N)cc4)nc3C2)cnc2c1NCCO2` [Example 182, 2-methyl-2-(4-((7-(8-methyl-2,3-dihydro-1H-pyrido[2,3-b][1,4]oxazin-7-yl)-5,6,7,8-tetrahydropyrido[3,4-d]pyrimidin-2-yl)amino)phenyl)propanenitrile], which IC50 [1] is on record?
A: < 100 nM

Q: And the IC50 [2, 3]?
A: < 500 nM

Source: US20240025922A1, “TETRAHYDROPYRIDO[3,4-d]PYRIMIDINES AS HPK1 INHIBITORS” (Merck Patent GmbH, priority 2022, published 2024)
